Measured values taken from ChEMBL document CHEMBL1201862, “PubChem BioAssay data set” (2004).
Active and inactive are the calls of the source.

Key:
[1] = molecular target: T1, Tyrosine-protein phosphatase non-receptor type 7 (Homo sapiens, UniProt P35236); assay: redox-active compounds inhibiting HePTP phosphatase – biochemical, fluorescence, mechanism study (AID 2068); type: functional
T1 sequence (P35236 whole entry): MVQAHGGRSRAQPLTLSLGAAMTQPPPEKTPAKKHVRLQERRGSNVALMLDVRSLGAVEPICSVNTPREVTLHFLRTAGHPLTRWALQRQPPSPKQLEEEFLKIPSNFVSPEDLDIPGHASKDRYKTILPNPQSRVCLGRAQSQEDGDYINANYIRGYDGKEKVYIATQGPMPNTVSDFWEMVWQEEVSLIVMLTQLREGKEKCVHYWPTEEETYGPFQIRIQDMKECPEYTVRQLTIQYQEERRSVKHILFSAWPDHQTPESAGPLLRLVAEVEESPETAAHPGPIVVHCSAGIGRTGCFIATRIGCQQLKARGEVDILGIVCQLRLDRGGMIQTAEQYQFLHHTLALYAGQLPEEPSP

[2] = molecular target: T2, Carboxy-terminal domain RNA polymerase II polypeptide A small phosphatase 1 (Homo sapiens, UniProt Q9GZU7); assay: CTDSP1 inhibitors, concentration-response, biochemical, absorbance readout, ultra-high-throughput screen actives (AID 540297); type: functional
T2 sequence (Q9GZU7 whole entry): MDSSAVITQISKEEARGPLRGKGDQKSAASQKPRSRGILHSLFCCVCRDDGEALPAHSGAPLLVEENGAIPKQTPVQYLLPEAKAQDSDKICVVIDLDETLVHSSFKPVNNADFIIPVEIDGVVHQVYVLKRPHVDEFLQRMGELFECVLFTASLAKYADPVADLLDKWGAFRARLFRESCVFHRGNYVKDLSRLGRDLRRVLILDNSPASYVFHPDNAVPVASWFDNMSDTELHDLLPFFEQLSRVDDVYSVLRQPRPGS

[3] = molecular target: T1, Tyrosine-protein phosphatase non-receptor type 7; assay: inhibition of hematopoietic tyrosine phosphatase HePTP – biochemical, set 2, SAR follow-up (AID 449736); type: functional
[4] = molecular target: Dual specificity protein phosphatase 3 (Homo sapiens, UniProt P51452); assay: SAR VHR1 Fluorescent Assay for In Vitro dose response studies Set 2. [Related pubchem assays (depositor defined):AID1654, AID1661, AID1878]; type: functional
[5] = molecular target: T3, Tyrosine-protein phosphatase non-receptor type 22 (Homo sapiens, UniProt Q9Y2R2); assay: SAR LYP1 Fluorescent Assay using OMFP substrate for In Vitro dose response studies - Set 3. [Related pubchem assays (depositor defined):AID1779, AID1784, AID2140, AID2686]; type: functional
T3 sequence (Q9Y2R2 whole entry): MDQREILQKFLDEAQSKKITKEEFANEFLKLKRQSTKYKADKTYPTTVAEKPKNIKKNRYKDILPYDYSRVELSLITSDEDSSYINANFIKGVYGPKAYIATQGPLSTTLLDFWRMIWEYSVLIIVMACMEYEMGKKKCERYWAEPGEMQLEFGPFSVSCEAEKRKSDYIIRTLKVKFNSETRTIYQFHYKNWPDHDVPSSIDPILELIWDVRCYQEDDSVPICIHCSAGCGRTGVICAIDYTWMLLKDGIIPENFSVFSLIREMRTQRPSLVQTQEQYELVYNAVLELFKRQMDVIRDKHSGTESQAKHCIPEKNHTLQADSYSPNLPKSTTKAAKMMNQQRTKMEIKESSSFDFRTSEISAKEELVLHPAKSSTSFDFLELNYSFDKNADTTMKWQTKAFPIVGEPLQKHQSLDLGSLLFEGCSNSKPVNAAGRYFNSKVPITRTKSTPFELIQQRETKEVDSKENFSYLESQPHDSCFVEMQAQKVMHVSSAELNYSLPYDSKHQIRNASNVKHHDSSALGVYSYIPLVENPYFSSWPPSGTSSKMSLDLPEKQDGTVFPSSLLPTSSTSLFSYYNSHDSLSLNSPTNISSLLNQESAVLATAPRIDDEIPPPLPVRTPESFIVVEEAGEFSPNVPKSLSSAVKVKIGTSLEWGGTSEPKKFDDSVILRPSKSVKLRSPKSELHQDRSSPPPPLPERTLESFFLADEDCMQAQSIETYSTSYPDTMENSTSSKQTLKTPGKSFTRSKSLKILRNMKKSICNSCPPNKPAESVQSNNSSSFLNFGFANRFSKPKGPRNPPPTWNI

[6] = molecular target: Dual specificity protein phosphatase 6 (Rattus norvegicus, UniProt Q64346); type: functional;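 further: confirmatory in vitro dose-response testing of MKP-3 inhibition; recombinant His-tagged MKP-3 made in E. coli BL21 with OMFP substrate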
[7] = molecular target: T4, Tyrosine-protein phosphatase non-receptor type 12 (Homo sapiens, UniProt Q05209); assay: SAR Selectivity Analysis of small molecule inhibitors of PEST using pCAP in a fluorescence assay. [Related pubchem assays (depositor defined):AID1779, AID1784, AID2135]; type: functional
T4 sequence (Q05209 whole entry): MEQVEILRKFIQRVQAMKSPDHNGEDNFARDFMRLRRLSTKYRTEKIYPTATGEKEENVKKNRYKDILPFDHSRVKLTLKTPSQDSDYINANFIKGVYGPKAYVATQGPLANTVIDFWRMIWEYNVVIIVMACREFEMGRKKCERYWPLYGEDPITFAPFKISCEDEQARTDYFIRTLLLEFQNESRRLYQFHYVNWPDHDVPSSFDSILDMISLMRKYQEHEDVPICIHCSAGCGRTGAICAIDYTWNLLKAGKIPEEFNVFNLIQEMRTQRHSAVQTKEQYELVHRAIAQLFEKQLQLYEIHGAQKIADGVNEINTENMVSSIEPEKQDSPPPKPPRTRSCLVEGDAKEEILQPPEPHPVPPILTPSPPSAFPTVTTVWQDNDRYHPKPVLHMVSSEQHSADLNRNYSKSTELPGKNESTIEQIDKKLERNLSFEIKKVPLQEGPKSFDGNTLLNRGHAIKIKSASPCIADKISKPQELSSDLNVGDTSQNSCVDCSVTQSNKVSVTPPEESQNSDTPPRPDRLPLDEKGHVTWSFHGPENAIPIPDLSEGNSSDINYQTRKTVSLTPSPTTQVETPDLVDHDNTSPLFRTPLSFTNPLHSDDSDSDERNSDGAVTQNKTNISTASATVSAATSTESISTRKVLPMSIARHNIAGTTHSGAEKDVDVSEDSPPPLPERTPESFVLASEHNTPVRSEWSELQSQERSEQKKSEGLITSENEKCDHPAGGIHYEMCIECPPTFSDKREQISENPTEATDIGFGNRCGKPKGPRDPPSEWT

SUMO-activating enzyme [8] = molecular target: T5, SUMO-activating enzyme (Homo sapiens, UniProt Q9UBT2); assay: blockers of UBC9-mediated SUMO conjugation – biochemical, AlphaScreen, SUMOylation inhibitor project, confirmation (AID 2018); type: functional
[9] = molecular target: T3, Tyrosine-protein phosphatase non-receptor type 22; assay: inhibition of lymphoid tyrosine phosphatase LYP – biochemical, pCAP fluorogenic substrate, fluorescence, set 3, SAR follow-up (AID 449727); type: functional
[10] = molecular target: Arf-GAP with SH3 domain, ANK repeat and PH domain-containing protein 1 (Homo sapiens, UniProt Q9ULH1); type: functional;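 further: biochemical fluorescence polarization dose–response screen measuring inhibition of ASAP1; ASAP1 GAP domain stimulating GTP hydrolysis by truncated human ARF1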
SUMO-activating enzyme [11] = molecular target: T5, SUMO-activating enzyme; assay: blockers of SAE1/SAE2–UBC9 SUMO transfer – biochemical, HTRF, uHTS, primary screen (AID 2006); type: protein-complex assay
[12] = molecular target: T6, Small ubiquitin-related modifier 1 (Homo sapiens, UniProt P63165); assay: SUMO1 protein interaction blockers, potency – biochemical, fluorescence polarization, uHTS hits, dose response (AID 624382); type: functional; details: read-out: IC50_Mean
[13] = molecular target: Beta-adrenergic receptor kinase 1 (Homo sapiens, UniProt P25098); assay: blockers of aptamer binding to GRK2 – biochemical, flow cytometry beads, FAM-aptamer, powder set 1, dose response (AID 588720)
[14] = molecular target: T7, Apoptotic protease-activating factor 1 (Homo sapiens, UniProt O14727); assay: activation of Apaf-1 mediated apoptosis – fluorescent, uHTS hits, dose response (AID 588554); type: functional
T7 sequence (O14727 whole entry): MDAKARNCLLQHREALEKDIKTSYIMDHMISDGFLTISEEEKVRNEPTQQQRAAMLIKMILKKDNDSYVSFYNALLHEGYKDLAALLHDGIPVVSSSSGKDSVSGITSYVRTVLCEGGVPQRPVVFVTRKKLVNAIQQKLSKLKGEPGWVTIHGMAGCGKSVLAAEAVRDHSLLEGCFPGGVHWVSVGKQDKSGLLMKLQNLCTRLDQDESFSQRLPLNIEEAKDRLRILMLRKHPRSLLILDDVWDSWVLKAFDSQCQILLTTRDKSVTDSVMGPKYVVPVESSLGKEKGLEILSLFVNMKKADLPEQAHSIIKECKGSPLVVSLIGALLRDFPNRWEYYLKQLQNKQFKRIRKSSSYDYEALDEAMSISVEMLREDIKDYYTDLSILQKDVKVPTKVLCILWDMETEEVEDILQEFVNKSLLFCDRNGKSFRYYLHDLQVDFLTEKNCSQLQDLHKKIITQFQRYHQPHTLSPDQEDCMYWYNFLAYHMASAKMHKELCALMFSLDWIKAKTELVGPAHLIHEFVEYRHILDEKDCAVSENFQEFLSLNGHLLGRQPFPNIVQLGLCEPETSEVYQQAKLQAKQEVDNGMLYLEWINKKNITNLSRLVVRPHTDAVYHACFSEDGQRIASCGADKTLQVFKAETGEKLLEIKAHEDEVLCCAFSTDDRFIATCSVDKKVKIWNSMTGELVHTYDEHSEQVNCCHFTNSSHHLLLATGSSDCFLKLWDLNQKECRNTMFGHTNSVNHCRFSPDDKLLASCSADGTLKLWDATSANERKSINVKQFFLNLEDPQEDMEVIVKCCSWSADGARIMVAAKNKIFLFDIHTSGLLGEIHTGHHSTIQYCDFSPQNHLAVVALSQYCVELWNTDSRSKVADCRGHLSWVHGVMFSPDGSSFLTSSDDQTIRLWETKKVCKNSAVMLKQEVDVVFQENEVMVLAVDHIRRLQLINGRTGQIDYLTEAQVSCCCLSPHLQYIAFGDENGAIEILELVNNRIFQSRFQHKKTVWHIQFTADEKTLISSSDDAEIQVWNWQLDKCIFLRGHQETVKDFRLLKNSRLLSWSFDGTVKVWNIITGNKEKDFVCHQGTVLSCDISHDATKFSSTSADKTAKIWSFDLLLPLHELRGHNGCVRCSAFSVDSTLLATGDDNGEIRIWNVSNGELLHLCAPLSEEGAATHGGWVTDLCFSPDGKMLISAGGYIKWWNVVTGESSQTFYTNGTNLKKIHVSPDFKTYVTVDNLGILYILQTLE

[15] = molecular target: T6, Small ubiquitin-related modifier 1; assay: SUMO1 protein-protein binding blockers, potency – biochemical, FRET, dose response (AID 624383); type: functional; details: read-out: IC50_Mean
HEK293 [16] = assay: HEK293T cell viability loss, resazurin readout – resazurin fluorescence, cytotoxicity control for NF-kB activator project, SAR follow-up (AID 493251); type: functional, cell-based; details: Homo sapiens
Jurkat = assay: SAR Analysis of small molecule inhibitors of […] specific antigen receptor-induced NF-kB activation in a Jurkat cell line using a luminescence assay - Set 3. [Related pubchem assays (depositor defined):AID435022, AID435025, AID465]; type: functional, cell-based; details: Homo sapiens
HEK293 [17] = assay: SAR Analysis of small molecule inhibitors of B-cell specific antigen receptor-induced NF-kB activation in a HEK-293T cell line using a luminescence assay - Set 2. [Related pubchem assays (depositor defined):AID435022, AID435025, AID489021]; type: functional, cell-based; details: Homo sapiens

T6 sequence (P63165 whole entry): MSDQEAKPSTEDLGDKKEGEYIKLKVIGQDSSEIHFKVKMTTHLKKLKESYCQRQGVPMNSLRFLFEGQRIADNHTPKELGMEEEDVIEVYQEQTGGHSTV
T5 sequence (Q9UBE0 whole entry): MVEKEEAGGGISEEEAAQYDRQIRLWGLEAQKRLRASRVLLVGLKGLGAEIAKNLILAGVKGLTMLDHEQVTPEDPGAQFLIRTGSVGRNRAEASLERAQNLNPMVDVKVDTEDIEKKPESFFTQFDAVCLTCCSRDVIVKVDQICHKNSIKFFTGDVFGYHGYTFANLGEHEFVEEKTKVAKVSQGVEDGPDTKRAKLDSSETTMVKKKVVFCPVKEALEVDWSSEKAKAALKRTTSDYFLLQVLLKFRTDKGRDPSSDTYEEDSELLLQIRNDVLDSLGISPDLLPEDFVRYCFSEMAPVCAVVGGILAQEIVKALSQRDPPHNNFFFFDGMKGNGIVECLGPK
T5 sequence (Q9UBT2 whole entry): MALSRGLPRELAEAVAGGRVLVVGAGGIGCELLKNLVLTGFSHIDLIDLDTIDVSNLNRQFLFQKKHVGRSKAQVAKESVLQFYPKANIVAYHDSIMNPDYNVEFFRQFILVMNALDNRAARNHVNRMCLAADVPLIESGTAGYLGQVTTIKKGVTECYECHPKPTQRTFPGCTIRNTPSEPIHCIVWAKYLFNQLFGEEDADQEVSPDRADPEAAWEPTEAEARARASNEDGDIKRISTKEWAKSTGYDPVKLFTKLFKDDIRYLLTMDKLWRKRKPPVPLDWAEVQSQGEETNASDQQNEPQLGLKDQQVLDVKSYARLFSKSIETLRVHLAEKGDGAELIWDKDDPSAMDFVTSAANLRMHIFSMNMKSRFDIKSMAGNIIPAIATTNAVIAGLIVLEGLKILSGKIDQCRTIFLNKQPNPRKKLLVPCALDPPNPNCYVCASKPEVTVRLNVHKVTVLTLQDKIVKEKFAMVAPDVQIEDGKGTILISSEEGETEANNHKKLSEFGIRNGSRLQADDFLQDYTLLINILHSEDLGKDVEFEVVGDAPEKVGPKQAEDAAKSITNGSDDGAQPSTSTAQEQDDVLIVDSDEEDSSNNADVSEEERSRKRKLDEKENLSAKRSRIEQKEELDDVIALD
Sequence of Arf-GAP with SH3 domain, ANK repeat and PH domain-containing protein 1 (Q9ULH1 whole entry, the tested form may be a part): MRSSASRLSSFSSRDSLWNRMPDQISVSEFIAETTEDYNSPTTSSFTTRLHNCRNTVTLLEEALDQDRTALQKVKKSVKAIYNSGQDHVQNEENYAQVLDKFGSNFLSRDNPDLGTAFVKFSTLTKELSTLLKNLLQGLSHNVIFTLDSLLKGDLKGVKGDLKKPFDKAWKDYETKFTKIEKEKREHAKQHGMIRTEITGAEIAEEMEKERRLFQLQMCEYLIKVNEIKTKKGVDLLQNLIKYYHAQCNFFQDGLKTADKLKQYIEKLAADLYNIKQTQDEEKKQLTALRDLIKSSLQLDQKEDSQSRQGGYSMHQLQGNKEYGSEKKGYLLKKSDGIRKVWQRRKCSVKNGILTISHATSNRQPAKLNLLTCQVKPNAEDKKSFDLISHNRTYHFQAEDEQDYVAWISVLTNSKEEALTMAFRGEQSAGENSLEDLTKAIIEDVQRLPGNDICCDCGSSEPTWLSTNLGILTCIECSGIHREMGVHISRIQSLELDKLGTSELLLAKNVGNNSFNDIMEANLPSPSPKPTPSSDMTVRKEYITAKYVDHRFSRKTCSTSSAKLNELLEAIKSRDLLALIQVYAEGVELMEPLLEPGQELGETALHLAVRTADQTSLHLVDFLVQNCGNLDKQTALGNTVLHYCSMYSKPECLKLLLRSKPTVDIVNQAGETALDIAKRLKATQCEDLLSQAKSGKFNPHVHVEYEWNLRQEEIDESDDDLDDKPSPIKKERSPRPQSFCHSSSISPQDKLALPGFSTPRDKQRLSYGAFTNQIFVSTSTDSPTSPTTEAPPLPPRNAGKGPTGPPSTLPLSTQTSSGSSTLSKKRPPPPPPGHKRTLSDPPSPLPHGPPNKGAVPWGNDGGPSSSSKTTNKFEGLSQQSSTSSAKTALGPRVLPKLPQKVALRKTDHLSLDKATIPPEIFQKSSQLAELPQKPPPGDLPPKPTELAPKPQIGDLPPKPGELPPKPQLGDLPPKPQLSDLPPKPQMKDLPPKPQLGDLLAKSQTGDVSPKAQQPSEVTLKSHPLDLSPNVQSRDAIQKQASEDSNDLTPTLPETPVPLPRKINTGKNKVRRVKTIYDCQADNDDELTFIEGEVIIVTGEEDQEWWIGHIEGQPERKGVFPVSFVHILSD
Sequence of Dual specificity protein phosphatase 3 (P51452 whole entry): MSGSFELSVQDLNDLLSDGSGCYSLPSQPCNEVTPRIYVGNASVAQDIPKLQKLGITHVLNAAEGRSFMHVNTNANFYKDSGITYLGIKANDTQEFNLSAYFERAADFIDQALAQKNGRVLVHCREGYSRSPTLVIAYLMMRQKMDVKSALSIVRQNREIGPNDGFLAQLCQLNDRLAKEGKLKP
Sequence of Beta-adrenergic receptor kinase 1 (P25098 whole entry): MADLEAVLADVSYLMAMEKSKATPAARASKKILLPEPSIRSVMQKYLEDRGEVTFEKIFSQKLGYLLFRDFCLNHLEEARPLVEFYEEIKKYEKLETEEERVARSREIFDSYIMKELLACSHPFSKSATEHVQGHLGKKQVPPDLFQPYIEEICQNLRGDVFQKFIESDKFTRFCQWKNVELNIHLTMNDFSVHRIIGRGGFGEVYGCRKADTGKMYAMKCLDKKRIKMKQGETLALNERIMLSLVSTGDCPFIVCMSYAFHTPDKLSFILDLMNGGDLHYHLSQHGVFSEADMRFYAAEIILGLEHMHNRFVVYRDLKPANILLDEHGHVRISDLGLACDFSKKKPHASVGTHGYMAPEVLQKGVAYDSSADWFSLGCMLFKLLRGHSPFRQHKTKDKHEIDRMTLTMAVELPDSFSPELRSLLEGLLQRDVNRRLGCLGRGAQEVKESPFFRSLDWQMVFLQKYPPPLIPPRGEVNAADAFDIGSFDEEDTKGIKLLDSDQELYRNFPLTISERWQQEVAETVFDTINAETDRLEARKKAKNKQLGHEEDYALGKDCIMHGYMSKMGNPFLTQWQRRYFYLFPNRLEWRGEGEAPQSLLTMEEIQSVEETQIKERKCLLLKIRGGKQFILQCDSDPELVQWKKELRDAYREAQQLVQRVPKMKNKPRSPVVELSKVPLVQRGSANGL
Sequence of Dual specificity protein phosphatase 6 (Q64346 whole entry): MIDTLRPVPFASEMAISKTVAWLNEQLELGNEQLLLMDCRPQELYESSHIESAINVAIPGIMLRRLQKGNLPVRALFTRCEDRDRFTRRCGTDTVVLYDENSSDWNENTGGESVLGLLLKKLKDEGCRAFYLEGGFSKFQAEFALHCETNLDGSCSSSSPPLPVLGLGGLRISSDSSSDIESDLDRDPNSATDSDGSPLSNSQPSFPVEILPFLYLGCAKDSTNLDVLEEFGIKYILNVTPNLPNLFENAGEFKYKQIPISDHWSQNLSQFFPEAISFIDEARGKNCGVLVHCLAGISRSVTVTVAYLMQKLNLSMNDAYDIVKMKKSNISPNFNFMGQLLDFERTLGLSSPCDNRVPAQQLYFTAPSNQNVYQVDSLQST

Row | SMILES | IC50 [1] | IC50 [2] | IC50 [3] | IC50 [4] | IC50 [5] | IC50 [6] | IC50 [7] | IC50 (SUMO-activating enzyme [8]) | IC50 [9] | IC50 [10] | IC50 (SUMO-activating enzyme [11]) | IC50 [12] | EC50 [13] | EC50 [14] | IC50 [15] | IC50 (HEK293 [16]) | IC50 (Jurkat) | IC50 (HEK293 [17])
1 | Cc1ccc(NC(=O)CN2C(=O)S/C(=C\c3cc(Cl)c(OCC(=O)O)c(Cl)c3)C2=O)cc1 | 0.819 µM (active) | 2.5 µM (active) | 0.596 µM (active) | 3.55 µM (active) | 3.95 µM (active) | 17.8 µM (active) | 2.79 µM (active) | 8.11 µM (active) | 4.09 µM (active) | 6.61 µM (active) | 13.5 µM (active) |  |  |  |  |  |  | 
2 | CCOc1ccccc1NC(=O)CCS(=O)(=O)c1ccc(Br)cc1 |  | 4.09 µM (active) |  |  |  |  |  |  |  |  |  | > 66.6 µM (inactive) | 0.337 µM (active) | 11.6 µM (active) | 6.76 µM (active) |  |  | 
3 | CCOc1ccc(-c2noc(CCC(=O)NC)n2)cc1 |  |  |  |  |  |  |  |  |  |  |  |  |  |  |  | > 80 µM (inactive) | > 80 µM (inactive) | > 80 µM (inactive)
